Data on 51 compounds can be found in US9006450B2 (Boehringer Ingelheim International GmbH, priority 2010, dated 2015).

The target of the test is T1, human ACC2 (Homo sapiens, UniProt O00763).
T1 construct: made in house; host or cells: insect cells (baculoviral expression system)
T1 sequence (O00763 129-2458 limits assumed): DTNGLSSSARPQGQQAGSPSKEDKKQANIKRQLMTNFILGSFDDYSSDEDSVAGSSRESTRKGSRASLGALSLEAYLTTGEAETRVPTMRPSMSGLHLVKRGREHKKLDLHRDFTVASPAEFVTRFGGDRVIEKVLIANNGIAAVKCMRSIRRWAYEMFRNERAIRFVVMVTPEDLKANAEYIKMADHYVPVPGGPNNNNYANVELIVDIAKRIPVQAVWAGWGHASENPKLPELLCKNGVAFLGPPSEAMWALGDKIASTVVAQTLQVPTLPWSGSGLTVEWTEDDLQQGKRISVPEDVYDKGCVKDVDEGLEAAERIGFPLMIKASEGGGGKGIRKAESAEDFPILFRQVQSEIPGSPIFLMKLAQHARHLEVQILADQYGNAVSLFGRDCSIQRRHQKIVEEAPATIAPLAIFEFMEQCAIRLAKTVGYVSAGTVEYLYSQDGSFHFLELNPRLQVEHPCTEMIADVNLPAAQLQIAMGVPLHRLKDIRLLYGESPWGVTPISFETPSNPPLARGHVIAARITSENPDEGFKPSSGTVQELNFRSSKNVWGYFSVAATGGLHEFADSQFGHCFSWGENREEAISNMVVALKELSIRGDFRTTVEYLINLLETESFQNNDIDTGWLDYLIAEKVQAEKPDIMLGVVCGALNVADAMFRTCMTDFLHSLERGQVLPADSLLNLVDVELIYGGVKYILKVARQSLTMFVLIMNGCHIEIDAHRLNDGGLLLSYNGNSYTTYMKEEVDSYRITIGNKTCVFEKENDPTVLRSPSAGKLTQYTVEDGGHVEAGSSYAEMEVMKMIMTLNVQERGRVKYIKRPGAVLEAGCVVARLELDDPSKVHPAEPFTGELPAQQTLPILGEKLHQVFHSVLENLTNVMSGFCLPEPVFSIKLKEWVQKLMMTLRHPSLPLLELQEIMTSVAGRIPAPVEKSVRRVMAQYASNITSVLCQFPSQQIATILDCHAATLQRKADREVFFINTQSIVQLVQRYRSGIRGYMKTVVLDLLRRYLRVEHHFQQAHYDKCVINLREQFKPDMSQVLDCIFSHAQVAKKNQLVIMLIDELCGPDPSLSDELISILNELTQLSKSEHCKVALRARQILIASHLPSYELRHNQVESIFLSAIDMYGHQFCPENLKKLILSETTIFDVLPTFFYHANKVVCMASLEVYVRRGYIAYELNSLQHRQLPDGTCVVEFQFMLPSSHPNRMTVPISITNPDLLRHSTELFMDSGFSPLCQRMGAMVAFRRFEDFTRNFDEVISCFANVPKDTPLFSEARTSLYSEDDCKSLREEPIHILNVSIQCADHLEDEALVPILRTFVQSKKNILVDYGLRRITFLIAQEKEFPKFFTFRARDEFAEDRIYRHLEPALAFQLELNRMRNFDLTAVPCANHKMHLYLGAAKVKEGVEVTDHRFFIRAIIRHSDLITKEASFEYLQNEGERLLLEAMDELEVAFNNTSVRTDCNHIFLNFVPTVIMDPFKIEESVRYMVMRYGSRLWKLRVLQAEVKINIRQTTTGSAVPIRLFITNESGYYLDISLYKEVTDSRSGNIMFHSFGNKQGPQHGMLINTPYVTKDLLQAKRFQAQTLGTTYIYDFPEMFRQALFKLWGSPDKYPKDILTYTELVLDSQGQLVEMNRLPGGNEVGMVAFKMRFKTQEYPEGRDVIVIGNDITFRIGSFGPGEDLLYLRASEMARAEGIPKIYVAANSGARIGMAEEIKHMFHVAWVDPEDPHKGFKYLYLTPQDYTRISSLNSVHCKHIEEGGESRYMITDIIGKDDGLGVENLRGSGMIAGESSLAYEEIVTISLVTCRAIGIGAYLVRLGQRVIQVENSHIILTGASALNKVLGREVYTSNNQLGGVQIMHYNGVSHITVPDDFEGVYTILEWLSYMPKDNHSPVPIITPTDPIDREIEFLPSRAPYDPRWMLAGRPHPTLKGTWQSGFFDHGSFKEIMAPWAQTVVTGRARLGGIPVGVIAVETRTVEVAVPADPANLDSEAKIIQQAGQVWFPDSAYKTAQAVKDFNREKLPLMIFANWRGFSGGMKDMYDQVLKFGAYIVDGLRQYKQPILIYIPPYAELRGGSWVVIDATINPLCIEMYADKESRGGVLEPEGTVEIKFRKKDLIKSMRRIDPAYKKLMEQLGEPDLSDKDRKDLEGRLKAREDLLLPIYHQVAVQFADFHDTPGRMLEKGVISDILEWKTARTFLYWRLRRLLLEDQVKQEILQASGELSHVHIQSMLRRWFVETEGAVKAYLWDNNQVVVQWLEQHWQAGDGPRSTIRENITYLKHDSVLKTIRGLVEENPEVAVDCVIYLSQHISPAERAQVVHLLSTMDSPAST
Nature of the test: ACC2 assay, spectrophotometric 384 well assay (NADH-linked, coupled lactate dehydrogenase/pyruvate kinase). The class given is biochemical. The note with it: ACC2 assay, hACC2 construct lacking 128 N-terminal amino acids, 25° C., 340 nm; read-out: IC50. The essentials: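 Human ACC2 lacking N-terminal 128 aa, baculovirus/insect-cell expressed, anion-exchange purified; 100 mM Tris pH 7.5, 10 mM citrate, 25 mM KHCO3, 1% DMSO. Started with 200 μM NADH and acetyl-CoA plus 500 μM ATP; PK/LDH-coupled A340 decrease read 15 min at 25° C. IC50 by nonlinear fit of low-control-subtracted slopes.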
Consider `CCCOc1ccc(N2CCC(c3ccc([C@H](C)NC(C)=O)cc3)CC2)cc1C#N` [Example 8.32], for which the IC50 (commonly the concentration that gives 50% inhibition) was 3200 nM.
Turning to `CCCOc1ccc(N2CCC(c3ccc([C@H](C)NC(C)=O)cc3)CC2)cc1OC` [Example 8.33], the IC50 turned out to be 3500 nM.
Take `CCCOc1ccc(N2CCC(c3ccc([C@H](C)NC(C)=O)cc3)CC2)cc1Cl` [Example 8.34]: the IC50 amounted to 260 nM.
`CC(=O)N[C@@H](C)c1ccc(C2CCN(c3ccc(OC4CCCC4)c(C)c3)CC2)cc1` [Example 8.35]: the IC50 amounted to 490 nM.
The value for `CC(=O)N[C@@H](C)c1ccc(C2CCN(c3ccc(OC4CCCC4)c(C#N)c3)CC2)cc1` [Example 8.36] was 2200 nM; that for `CC(=O)N[C@@H](C)c1ccc(C2CCN(c3ccc(OC4CCCC4)c(F)c3)CC2)cc1` [Example 8.37] was 660 nM; that for `COc1cc(N2CCC(c3ccc([C@H](C)NC(C)=O)cc3)CC2)ccc1OC1CCCC1` [Example 8.38] was 1200 nM.
The value for `CC(=O)N[C@@H](C)c1ccc(C2CCN(c3ccc(OC4CCCC4)c(Cl)c3)CC2)cc1` [Example 8.39] was 110 nM; that for `CCCCOc1ccc(N2CCC(c3ccc([C@H](C)NC(C)=O)cc3)CC2)cc1C` [Example 8.40] was 1400 nM; that for `CCCCOc1ccc(N2CCC(c3ccc([C@H](C)NC(C)=O)cc3)CC2)cc1C#N` [Example 8.41] was 4200 nM.
The value for `CCCCOc1ccc(N2CCC(c3ccc([C@H](C)NC(C)=O)cc3)CC2)cc1F` [Example 8.42] was 90 nM; that for `CCCCOc1ccc(N2CCC(c3ccc([C@H](C)NC(C)=O)cc3)CC2)cc1OC` [Example 8.43] was 2100 nM; that for `CCCCOc1ccc(N2CCC(c3ccc([C@H](C)NC(C)=O)cc3)CC2)cc1Cl` [Example 8.44] was 290 nM.
Take `COc1ccc(N2CCC(c3ccc([C@H](C)NC(C)=O)cc3)CC2)cc1C#N` [Example 8.45]: the IC50 came out at 7000 nM.
Turning to `COc1ccc(N2CCC(c3ccc([C@H](C)NC(C)=O)cc3)CC2)cc1Cl` [Example 8.46], the IC50 stood at 1000 nM.
Regarding `CC(=O)N[C@@H](C)c1ccc(C2CCN(c3ccc(OCC4CCO4)c(C)c3)CC2)cc1` (stereo partly drawn) [Example 8.47], the IC50 was 2600 nM.
As to `CC(=O)N[C@@H](C)c1ccc(C2CCN(c3ccc(OCC4CCO4)c(F)c3)CC2)cc1` (stereo partly drawn) [Example 8.48], the IC50 was found to be 1600 nM.
For `COc1cc(N2CCC(c3ccc([C@H](C)NC(C)=O)cc3)CC2)ccc1OCC1CCO1` (stereo partly drawn) [Example 8.49] the value was 26600 nM; for `CC(=O)N[C@@H](C)c1ccc(C2CCN(c3ccc(OCC4CCO4)c(Cl)c3)CC2)cc1` (stereo partly drawn) [Example 8.50], 1100 nM; for `CCC(C)Oc1ccc(N2CCC(c3ccc([C@H](C)NC(C)=O)cc3)CC2)cc1C` (stereo partly drawn) [Example 8.51], 760 nM.
Take `CCC(C)Oc1ccc(N2CCC(c3ccc([C@H](C)NC(C)=O)cc3)CC2)cc1C#N` (stereo partly drawn) [Example 8.52]: the IC50 was 3000 nM.
For `CCC(C)Oc1ccc(N2CCC(c3ccc([C@H](C)NC(C)=O)cc3)CC2)cc1F` (stereo partly drawn) [Example 8.53] the value was 300 nM; for `CCC(C)Oc1ccc(N2CCC(c3ccc([C@H](C)NC(C)=O)cc3)CC2)cc1OC` (stereo partly drawn) [Example 8.54], 1500 nM; for `CCC(C)Oc1ccc(N2CCC(c3ccc([C@H](C)NC(C)=O)cc3)CC2)cc1Cl` (stereo partly drawn) [Example 8.55], 300 nM.
Turning to `CCCC(C)Oc1ccc(N2CCC(c3ccc([C@H](C)NC(C)=O)cc3)CC2)cc1C` (stereo partly drawn) [Example 8.56], the IC50 came out at 1000 nM.
Turning to `CCCC(C)Oc1ccc(N2CCC(c3ccc([C@H](C)NC(C)=O)cc3)CC2)cc1C#N` (stereo partly drawn) [Example 8.57], the IC50 worked out at 3200 nM.
Take `CCCC(C)Oc1ccc(N2CCC(c3ccc([C@H](C)NC(C)=O)cc3)CC2)cc1F` (stereo partly drawn) [Example 8.58]: the IC50 turned out to be 370 nM.
`CCCC(C)Oc1ccc(N2CCC(c3ccc([C@H](C)NC(C)=O)cc3)CC2)cc1OC` (stereo partly drawn) [Example 8.59]: the IC50 amounted to 840 nM.
On to `CCCC(C)Oc1ccc(N2CCC(c3ccc([C@H](C)NC(C)=O)cc3)CC2)cc1Cl` (stereo partly drawn) [Example 8.60], for which the IC50 was 180 nM.
Take `CCOc1ccc(N2CCC(c3ccc([C@H](C)NC(C)=O)cc3)CC2)cc1Cl` [Example 8.61]: the IC50 is 300 nM.
Turning to `CCCOc1ccc(N2CCC(c3ccc([C@H](C)NC(C)=O)cc3)CC2)cc1F` [Example 8.62], the IC50 was 200 nM.
Consider `CC(=O)N[C@@H](C)c1ccc(C2CCN(c3ccc(OCCC4CC4)cc3)CC2)cc1` [Example 8.63], for which the IC50 was determined as 100 nM.
With `C/C=C/CCOc1ccc(N2CCC(c3ccc([C@H](C)NC(C)=O)cc3)CC2)cc1` [Example 8.64], the IC50 was found to be 120 nM.
For `CC(=O)N[C@@H](C)c1ccc(C2CCN(c3ccc(OCC/C=C/C4CC4)cc3)CC2)cc1` [Example 8.65] the value was 220 nM; for `CC(=O)N[C@@H](C)c1ccc(C2CCN(c3ccc(OCC4CC4(F)F)cc3)CC2)cc1` (stereo partly drawn) [Example 8.66], 60 nM; for `CC(=O)N[C@@H](C)c1ccc(C2CCN(c3cccc(OCCC(C)C)c3)CC2)cc1` [Example 9.1, (S)—N-[1-(4-{1-[3-(Isopentyloxy)-phenyl]-piperidin-4-yl}-phenyl)-ethyl]-acetamide], 370 nM.
Consider `CCCC(C)Oc1cccc(N2CCC(c3ccc([C@H](C)NC(C)=O)cc3)CC2)c1` (stereo partly drawn) [Example 9.2], for which the IC50 was found to be 300 nM.
On to `CC(=O)N[C@@H](C)c1ccc(C2CCN(c3cccc(OC4CCCOC4)c3)CC2)cc1` (stereo partly drawn) [Example 9.3], for which the IC50 is 1400 nM.
In the case of `CC(=O)N[C@@H](C)c1ccc(C2CCN(c3cccc(OCC(C)(C)C)c3)CC2)cc1` [Example 9.4], the IC50 was found to be 40 nM.
On to `C=CCOc1cccc(N2CCC(c3ccc([C@H](C)NC(C)=O)cc3)CC2)c1` [Example 9.5], for which the IC50 is 260 nM.
`CC(=O)N[C@@H](C)c1ccc(C2CCN(c3cccc(OC4CCCCC4)c3)CC2)cc1` [Example 9.6]: the IC50 was found to be 130 nM.
For the compound `COCCOc1cccc(N2CCC(c3ccc([C@H](C)NC(C)=O)cc3)CC2)c1` [Example 9.7], the IC50 came to 560 nM.
Consider `CC#CCOc1cccc(N2CCC(c3ccc([C@H](C)NC(C)=O)cc3)CC2)c1` [Example 9.8], for which the IC50 came out at 200 nM.
As to `COCCCOc1cccc(N2CCC(c3ccc([C@H](C)NC(C)=O)cc3)CC2)c1` [Example 9.9], the half-maximal inhibitory concentration (IC50) was 210 nM.
`C=CCCOc1cccc(N2CCC(c3ccc([C@H](C)NC(C)=O)cc3)CC2)c1` [Example 9.10]: the IC50 came out at 530 nM.
For `CC(=O)N[C@@H](C)c1ccc(C2CCN(c3cccc(OCc4cc(C)on4)c3)CC2)cc1` [Example 9.11], the IC50 is 170 nM.
With `CC(=O)N[C@@H](C)c1ccc(C2CCN(c3cccc(OCC4CCC4)c3)CC2)cc1` [Example 9.12], the IC50 is 250 nM.
Turning to `CC(=O)N[C@@H](C)c1ccc(C2CCN(c3cccc(OCC4CCOCC4)c3)CC2)cc1` [Example 9.13], the IC50 was 570 nM.
The value for `CC(=O)N[C@@H](C)c1ccc(C2CCN(c3cccc(OCCOC4CC4)c3)CC2)cc1` [Example 9.14] was 270 nM.
As to `CC(=O)N[C@@H](C)c1ccc(C2CCN(c3cccc(OCC4CCCCO4)c3)CC2)cc1` (stereo partly drawn) [Example 9.15], the IC50 was found to be 370 nM.
The value for `CCC(CC)Oc1cccc(N2CCC(c3ccc([C@H](C)NC(C)=O)cc3)CC2)c1` [Example 9.16] was 690 nM.
